Data from PubChem BioAssay AID256 (DTP/NCI, 2004).
Values joined by “and” are separate entries in the source; they are usually repeats but may differ in a detail not shown here. Equal entries are not always repeated. Toxic doses and inconclusive results are not listed. The calls were made as follows: active = survival T/C of 150% or more; inactive = T/C below 125% in these data. Non-standard residues stand in square brackets, D forms with d. Residues, ends and D or L forms follow the SMILES beside them. ξ: configuration not given here. *: point of attachment. ξF = NC(Cc1ccccc1)C(=O)O; Cbz = O=C(OCc1ccccc1)*

Tested on: CD2F1 mice, L1210 leukemia ip, survival T/C
Assay: NCI In Vivo Anticancer Drug Screen. Data for tumor model L1210 Leukemia (intraperitoneal) in CD2F1 (CDF1) mice
Conditions: higher = longer survival
Method in brief: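 Activity against a transplanted murine tumor was judged by comparing the compound group with a vehicle group. The outcome in the treated animals was divided by that in the controls.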

[1] = endpoint: mean survival time, dose: 50.0 mg/kg/injection, schedule: Q01DX009 (ip), vehicle: Klucel (hydroxypropylcellulose) (HPC)
[2] = endpoint: mean survival time, dose: 100.0 mg/kg/injection, schedule: Q01DX009 (ip), vehicle: Klucel (hydroxypropylcellulose) (HPC)
[3] = endpoint: mean survival time, dose: 200.0 mg/kg/injection, schedule: Q01DX009 (ip), vehicle: Klucel (hydroxypropylcellulose) (HPC)
[4] = endpoint: mean survival time, dose: 100.0 mg/kg/injection, schedule: Q01DX009 (ip), vehicle: saline with Tween-80
[5] = endpoint: mean survival time, dose: 100.0 mg/kg/injection, schedule: Q04DX003 (ip), vehicle: saline with Tween-80
[6] = endpoint: mean survival time, dose: 200.0 mg/kg/injection, schedule: Q01DX009 (ip), vehicle: saline with Tween-80
[7] = endpoint: mean survival time, dose: 200.0 mg/kg/injection, schedule: Q04DX003 (ip), vehicle: saline with Tween-80
[8] = endpoint: mean survival time, dose: 400.0 mg/kg/injection, schedule: Q01DX009 (ip), vehicle: saline with Tween-80
[9] = endpoint: mean survival time, dose: 400.0 mg/kg/injection, schedule: Q04DX003 (ip), vehicle: saline with Tween-80
[10] = endpoint: mean survival time, dose: 25.0 mg/kg/injection, schedule: Q04DX003 (ip), vehicle: saline with Tween-80
[11] = endpoint: mean survival time, dose: 50.0 mg/kg/injection, schedule: Q01DX009 (ip), vehicle: saline with Tween-80
[12] = endpoint: mean survival time, dose: 12.5 mg/kg/injection, schedule: Q01DX009 (ip), vehicle: saline with Tween-80
[13] = endpoint: mean survival time, dose: 25.0 mg/kg/injection, schedule: Q01DX009 (ip), vehicle: saline with Tween-80

Measured: T/C

O=C1c2ccccc2C(=O)C1(Cl)C(Cl)c1ccc([N+](=O)[O-])cc1 (stereo not given)
inactive: endpoint: mean survival time, dose: 100.0 mg/kg/injection, schedule: Q04DX003 (ip), vehicle: Klucel (hydroxypropylcellulose) (HPC) 100 % of control | endpoint: mean survival time, dose: 200.0 mg/kg/injection, schedule: Q04DX003 (ip), vehicle: Klucel (hydroxypropylcellulose) (HPC) 106 % of control | endpoint: mean survival time, dose: 400.0 mg/kg/injection, schedule: Q04DX003 (ip), vehicle: Klucel (hydroxypropylcellulose) (HPC) 106 % of control

C1=NC(c2ccccn2)=NNC(c2ccccn2)=C1c1ccccc1
inactive: endpoint: mean survival time, dose: 12.5 mg/kg/injection, schedule: Q01DX009 (ip), vehicle: Klucel (hydroxypropylcellulose) (HPC) 97 % of control | endpoint: mean survival time, dose: 25.0 mg/kg/injection, schedule: Q01DX009 (ip), vehicle: Klucel (hydroxypropylcellulose) (HPC) 100 % of control | [1] 95 % of control | [2] 100 % of control | [3] 97 % of control

Cc1c(Cl)cccc1NS(=O)(=O)c1ccccc1
inactive: [4] 108 % of control | [5] 92 % of control | [6] 103 % of control | [7] 99 % of control | [8] 103 % of control | [9] 99 % of control

O=C1c2ccccc2C(=O)N1Cc1ccccc1
inactive: [4] 105 % of control | [6] 100 % of control | [8] 103 % of control

O=C(CNC(=O)OCc1ccccc1)NCC(=O)NC(Cc1ccccc1)C(=O)O (stereo not drawn) (Cbz-Gly-Gly-[ξF]-OH)
inactive: [5] 96 % of control | [7] 93 % of control | [9] 93 % of control

O=C(CCC(=O)NO)NO
inactive: endpoint: mean survival time, dose: 100.0 mg/kg/injection, schedule: Q04DX002 (ip), vehicle: saline 101 % of control | endpoint: mean survival time, dose: 200.0 mg/kg/injection, schedule: Q04DX002 (ip), vehicle: saline 90 % of control

NC(=S)N/N=C/c1cc([N+](=O)[O-])ccc1O
inactive: [1] 113 % of control | [2] 97 % of control | [3] 101 % of control

Cc1ccc(S(=O)(=O)OCC2OCOC(C(O)CO)C2O)cc1 (stereo not given)
inactive: [1] 101 % of control | [2] 97 % of control | [3] 97 % of control

CC(C)NC(C)C
inactive: endpoint: mean survival time, dose: 200.0 mg/kg/injection, schedule: Q04DX002 (ip), vehicle: saline with Tween-80 98 % of control | endpoint: mean survival time, dose: 400.0 mg/kg/injection, schedule: Q04DX002 (ip), vehicle: saline with Tween-80 98 % of control

CN(C)/C(=C\C(=O)c1ccccc1)c1ccccc1
inactive: [10] 104 % of control | endpoint: mean survival time, dose: 50.0 mg/kg/injection, schedule: Q04DX003 (ip), vehicle: saline with Tween-80 108 % of control | [5] 93 % of control

CCN(C)N=Nc1ccc(NC(N)=O)cc1
inactive: endpoint: mean survival time, dose: 4.68 mg/kg/injection, schedule: Q01DX009 (ip), vehicle: Klucel (hydroxypropylcellulose) (HPC) 109 % of control and 112 % of control | endpoint: mean survival time, dose: 9.37 mg/kg/injection, schedule: Q01DX009 (ip), vehicle: Klucel (hydroxypropylcellulose) (HPC) 119 % of control and 108 % of control | endpoint: mean survival time, dose: 18.75 mg/kg/injection, schedule: Q01DX009 (ip), vehicle: Klucel (hydroxypropylcellulose) (HPC) 124 % of control
active: endpoint: mean survival time, dose: 37.5 mg/kg/injection, schedule: Q01DX009 (ip), vehicle: Klucel (hydroxypropylcellulose) (HPC) 152 % of control

C1=CC(=C(C2CCC(Nc3ccccc3)CC2)C2CCC(Nc3ccccc3)CC2)C=CC1=Nc1ccccc1 (stereo not given)
inactive: [11] 103 % of control | [4] 101 % of control | endpoint: mean survival time, dose: 100.0 mg/kg/injection, schedule: Q04DX003 (ip), vehicle: saline 104 % of control | [6] 107 % of control | endpoint: mean survival time, dose: 200.0 mg/kg/injection, schedule: Q04DX003 (ip), vehicle: saline 104 % of control

CC(C)=CCC/C(C)=C\CC1=C(O)c2ccccc2C(=O)C1=O
inactive: endpoint: mean survival time, dose: 50.0 mg/kg/injection, schedule: Q01DX009 (ip), vehicle: other 96 % of control | endpoint: mean survival time, dose: 100.0 mg/kg/injection, schedule: Q01DX009 (ip), vehicle: other 94 % of control | endpoint: mean survival time, dose: 200.0 mg/kg/injection, schedule: Q01DX009 (ip), vehicle: other 95 % of control

CCOC(=O)c1[nH]cnc1/N=N/N(C)C
inactive: endpoint: mean survival time, dose: 16.5 mg/kg/injection, schedule: Q01DX009 (ip), vehicle: saline with Tween-80 120 % of control | [4] 109 % of control | [5] 105 % of control

CC/C=N/Nc1ccc([N+](=O)[O-])cc1[N+](=O)[O-]
inactive: [12] 91 % of control | [13] 92 % of control | [11] 93 % of control

Cc1ccc(S(=O)(=O)NN=C(c2ccccc2)c2ccccc2)cc1
inactive: endpoint: mean survival time, dose: 25.0 mg/kg/injection, schedule: Q01DX009 (ip), vehicle: water 101 % of control | endpoint: mean survival time, dose: 50.0 mg/kg/injection, schedule: Q01DX009 (ip), vehicle: water 101 % of control | endpoint: mean survival time, dose: 100.0 mg/kg/injection, schedule: Q01DX009 (ip), vehicle: water 95 % of control | endpoint: mean survival time, dose: 200.0 mg/kg/injection, schedule: Q01DX009 (ip), vehicle: water 95 % of control

CCOC(=O)Cc1nnc2ncnc(N)c2n1
inactive: endpoint: mean survival time, dose: 100.0 mg/kg/injection, schedule: Q01DX001 (ip), vehicle: other 101 % of control | endpoint: mean survival time, dose: 200.0 mg/kg/injection, schedule: Q01DX001 (ip), vehicle: other 103 % of control | endpoint: mean survival time, dose: 400.0 mg/kg/injection, schedule: Q01DX001 (ip), vehicle: other 98 % of control

COC(=O)C(N)CSSCC(N)C(=O)OC (stereo not given)
inactive: endpoint: mean survival time, dose: 100.0 mg/kg/injection, schedule: Q01DX001 (ip), vehicle: saline 108 % of control | endpoint: mean survival time, dose: 100.0 mg/kg/injection, schedule: Q01DX009 (ip), vehicle: saline 102 % of control | endpoint: mean survival time, dose: 200.0 mg/kg/injection, schedule: Q01DX001 (ip), vehicle: saline 97 % of control | endpoint: mean survival time, dose: 200.0 mg/kg/injection, schedule: Q01DX009 (ip), vehicle: saline 94 % of control | endpoint: mean survival time, dose: 400.0 mg/kg/injection, schedule: Q01DX001 (ip), vehicle: saline 100 % of control | endpoint: mean survival time, dose: 400.0 mg/kg/injection, schedule: Q01DX009 (ip), vehicle: saline 94 % of control

OCC1=CCN(CCc2c[nH]c3ccccc23)CC1
inactive: [4] 96 % of control | [6] 96 % of control

CCCCCNC(=O)CCC(NC(=O)c1ccc(N(C)Cc2cnc3nc(N)nc(N)c3n2)cc1)C(=O)O (stereo not given)
inactive: endpoint: mean survival time, dose: 1.0 mg/kg/injection, schedule: Q01DX009 (ip), vehicle: sodium bicarbonate 107 % of control | endpoint: mean survival time, dose: 10.0 mg/kg/injection, schedule: Q01DX009 (ip), vehicle: sodium bicarbonate 118 % of control | endpoint: mean survival time, dose: 50.0 mg/kg/injection, schedule: Q01DX009 (ip), vehicle: sodium bicarbonate 122 % of control
active: endpoint: mean survival time, dose: 200.0 mg/kg/injection, schedule: Q01DX009 (ip), vehicle: sodium bicarbonate 152 % of control | endpoint: mean survival time, dose: 400.0 mg/kg/injection, schedule: Q01DX009 (ip), vehicle: sodium bicarbonate 164 % of control

COC(=O)C1C=Cc2ccccc21 (stereo not given)
inactive: [4] 95 % of control | [6] 95 % of control | [8] 104 % of control

C/C=C/C=C1/OC(C)=C(C(C)=O)C1=O
inactive: [12] 96 % of control and 97 % of control | [13] 90 % of control and 95 % of control | [11] 90 % of control and 109 % of control | [4] 100 % of control and 106 % of control | [6] 100 % of control

N#CCCN(CCCN1CCOCC1)C(=S)Nc1ccc(Cl)cc1
inactive: [4] 104 % of control | [6] 104 % of control | [8] 93 % of control

COc1cc2c[n+](C)c3c(c2cc1OC)Cc1cc2c(cc1-3)OCO2
inactive: endpoint: median survival time, dose: 6.0 mg/kg/injection, schedule: Q01DX009 (ip), vehicle: saline with Tween-80 122 % of control | endpoint: median survival time, dose: 100.0 mg/kg/injection, schedule: Q01DX009 (ip), vehicle: saline with Tween-80 94 % of control
active: endpoint: median survival time, dose: 25.0 mg/kg/injection, schedule: Q01DX009 (ip), vehicle: saline with Tween-80 152 % of control and 162 % of control | endpoint: median survival time, dose: 50.0 mg/kg/injection, schedule: Q01DX009 (ip), vehicle: saline with Tween-80 164 % of control and 168 % of control

O=C(O)CC(=O)O.OC(CN=Cc1ccccc1)CN=Cc1ccccc1.[Pt] (stereo not given)
inactive: endpoint: median survival time, dose: 10.0 mg/kg/injection, schedule: Q04DX003 (ip), vehicle: distilled water + Tween-80 103 % of control | endpoint: median survival time, dose: 20.0 mg/kg/injection, schedule: Q04DX003 (ip), vehicle: distilled water + Tween-80 104 % of control | endpoint: median survival time, dose: 40.0 mg/kg/injection, schedule: Q04DX003 (ip), vehicle: distilled water + Tween-80 102 % of control | endpoint: median survival time, dose: 80.0 mg/kg/injection, schedule: Q04DX003 (ip), vehicle: distilled water + Tween-80 116 % of control and 105 % of control | endpoint: median survival time, dose: 160.0 mg/kg/injection, schedule: Q04DX003 (ip), vehicle: distilled water + Tween-80 108 % of control | endpoint: median survival time, dose: 320.0 mg/kg/injection, schedule: Q04DX003 (ip), vehicle: distilled water + Tween-80 109 % of control

CCN(CC)c1ccc(N(C(C)=O)C(C)=O)cc1
inactive: endpoint: mean survival time, dose: 6.25 mg/kg/injection, schedule: Q04DX003 (ip), vehicle: saline with Tween-80 91 % of control | endpoint: mean survival time, dose: 12.5 mg/kg/injection, schedule: Q04DX003 (ip), vehicle: saline with Tween-80 95 % of control | [10] 93 % of control
